What was measured:
Assay type in all cases: in vivo, mouse
[1] = General health and body weight during chronic treatment; conditions: 3 weeks of daily treatment, ip 0.6 mg kg-1; WT and Ts65Dn mice
Procedure: (§1) A veterinarian was employed to maintain the health and comfort of the animals. Mice were housed in filtered cages in a temperature-controlled room with a 12:12 h dark/light cycle and with ad libitum access to water and food. All efforts were made to minimize animal suffering and use the lowest possible number of animals required to produce statistical relevant results, according to the “3Rs concept”. In this study, we used Ts65Dn mice maintained in their original genetic background[57] by crossing (more than 40 times) Ts65Dn female to C57BL/6JEi × C3SnHeSnJ (B6EiC3) F1 males (Jackson Laboratories). Ts65Dn mice were genotyped by PCR as previously described.[58] Only males were used for behavioral experiments. Ts65Dn and controls were randomly assigned to vehicle groups (2% DMSO in saline), bumetanide (Sigma, 0.6 mg kg^–1 body weight), or 40 (0.6 mg kg^–1 body weight) and treated daily for ∼21 days by intraperitoneal injection (i.p.). On the day of behavioral testing, injection was performed 1 h before the task began.

Ts65Dn mice [2] = experiment: Open field test (locomotor activity); conditions: ip 0.6 mg kg-1 daily
Procedure: All animal procedures were approved by IIT licensing in compliance with the Italian Ministry of Health (D.Lgs 26/2014) and EU guidelines (Directive 2010/63/EU). A veterinarian was employed to maintain the health and comfort of the animals. Mice were housed in filtered cages in a temperature-controlled room with a 12:12 h dark/light cycle and with ad libitum access to water and food. All efforts were made to minimize animal suffering and use the lowest possible number of animals required to produce statistical relevant results, according to the “3Rs concept”. In this study, we used Ts65Dn mice maintained in their original genetic background[57] by crossing (more than 40 times) Ts65Dn female to C57BL/6JEi × C3SnHeSnJ (B6EiC3) F1 males (Jackson Laboratories). Ts65Dn mice were genotyped by PCR as previously described.[58] Only males were used for behavioral experiments. […]
Ts65Dn male mice (8–16 weeks old) were tested after 1 week of treatment with vehicle or 40 (0.6 mg kg^–1 i.p.). […] The tasks were video-recorded and then analyzed manually by a blind operator. […] The alternation score was calculated as the percentage of correct choices (i.e., left–right or right–left) over the total number of the 10 possible alternations. […]

Ts65Dn mice [3] = experiment: Contextual fear-conditioning (CFC) test; conditions: ip 0.6 mg kg-1 daily, chronic, re-exposure 24 h after conditioning
Procedure: as §1
Ts65Dn male mice (8–16 weeks old) were tested after 1 week of treatment with vehicle or 40 (0.6 mg kg^–1 i.p.). The battery of tests was run over a total period of ∼14 days (four behavioral tests with the following order Open Field, NOR, T-maze, and CFC). […] The tasks were video-recorded and then analyzed manually by a blind operator.

CN(C)S(=O)(=O)c1cc(C(=O)O)c(O)cc1NCCCCCCCC(F)(F)F [Compound 40, 5-(N,N-Dimethylsulfamoyl)-2-hydroxy-4-((8,8,8-trifluorooctyl)amino)benzoic Acid]
animal body weight [1]: did not affect the animal body weight measures | general health (daily hands-on examination) [1]: did not affect the general health | hyperactivity in open field (distance traveled and average walking speed) (Ts65Dn mice [2]): rescued also the hyperactivity | associative memory in the CFC test (freezing response) (Ts65Dn mice [3]): completely restored
